Key:
[1] = system: GK rats fed with high-fat diets; conditions: rat, in vivo
CPT-1 = assay: Liver gene expression in high-fat diet GK rats after 6-week administration (quantitative PCR): CPT-1; type: in vivo, rat
Excerpt: (§1) The mRNA levels are expressed while defining the level in the SD group as 1.00. <Primer Sequence>

G6Pase = assay: Liver gene expression in high-fat diet GK rats after 6-week administration (quantitative PCR): G6Pase; type: in vivo, rat
Excerpt: as §1

HNF-4α = HNF-4α mRNA in Fao cells with L-Asp, L-Ala or both (quantitative PCR); type: cell-based, rat; conditions: 3 h, L-Asp 0.05 mM, L-Ala 0.03 mM or both
Procedure: Whether the suppressive effect of L-Asp on TRB3 expression in rat hepatocyte-derived Fao cells is increased by adding L-Ala as another amino acid was studied. Whether the expression of HNF-4α is increased was also studied. Fao cells were inoculated on a 24-well plate to an amount of 2×10^5 cells/well, and the cells were cultivated in a 10% fetal bovine serum-containing RPMI 1640 medium (supplied from Nacalai Tesque, Inc.; Code No. 30264-85) at 37° C. in an atmosphere of 5% CO2 overnight. On the following day, the medium was replaced with one of a 10% fetal bovine serum-containing RPMI medium from which all amino acids had been removed (minus amino acid medium; Table 1) and media corresponding to the minus amino acid medium, except with L-Asp (concentration: 0.05 mM), L-Ala (concentration: 0.03 mM), or both added, and the cells were further cultivated at 37° C. in 2.5% CO2 atmosphere for three hours. RNAs were extracted from the cultured cells, and the TRB3 mRNA levels and the HNF-4α mRNA levels were determined through quantitative polymerase chain reaction (PCR) (Table 10).

malic enzyme (ME) gene = assay: Liver gene expression profiling in GK rats (Gene Chip Rat Genome U34A Array): ME; type: in vivo; conditions: 8 weeks, CON group = 1.00
Procedure: Gene expression profiling was conducted using samples containing equivalent amounts of genes in the liver of individuals in the individual groups. The gene expression profiling was carried out with the Gene Chip Rat Genome U34A Array (Affymetrix Inc.). […] This is because the two genes relate to steatogenesis.
The mRNA levels are expressed while defining the level in the CON group as 1.00.

PPAR-alpha = assay: Liver gene expression in high-fat diet GK rats after 6-week administration (quantitative PCR): PPAR-alpha; type: in vivo, rat
Excerpt: as §1

[2] = HFD + Asp, 6-week administration, HFD = 1.00 in table, n = 6, mean
[3] = L-Asp administration, 6 weeks, HFD

N[C@@H](CC(=O)O)C(=O)O [L-Asp, L-aspartic acid]
Body weight [1]: 221 ± 11 g | CPT-1 mRNA level in liver (CPT-1; [2]): 1.20 | CPT-1 gene expression (CPT-1; [3]): 1.20 time | G6Pase mRNA level in liver (G6Pase; HFD + Asp, HFD = 1.00 in table, n = 6, mean): 0.52 | G6Pase expression relative to HFD group (G6Pase; HFD plus Asp group): 0.52 time | expression level of HNF-4α mRNA (HNF-4α): 1.3 time | HNF4α mRNA level (HNF-4α; minus amino acid medium = 1.00): 1.30 | ME mRNA level in liver (malic enzyme (ME) gene; 3% L-Asp diet (3AS)): 0.55 | ME mRNA level in liver (malic enzyme (ME) gene; 6% L-Asp diet (6AS)): 0.62 | PPARα mRNA level in liver (PPAR-alpha; [2]): 1.34 | PPAR-alpha gene expression (PPAR-alpha; [3]): 1.34 time
